Measurements reported in patent US8445690B2, “Aminothiazolones as estrogen related receptor-alpha modulators” (Janssen Pharmaceutica NV, priority 2010, dated 2013).

Biological target: T1, ERR1 (also known as ERR-α or ERR-1) (Homo sapiens, UniProt P11474)
T1 sequence (P11474 193-421 limits assumed): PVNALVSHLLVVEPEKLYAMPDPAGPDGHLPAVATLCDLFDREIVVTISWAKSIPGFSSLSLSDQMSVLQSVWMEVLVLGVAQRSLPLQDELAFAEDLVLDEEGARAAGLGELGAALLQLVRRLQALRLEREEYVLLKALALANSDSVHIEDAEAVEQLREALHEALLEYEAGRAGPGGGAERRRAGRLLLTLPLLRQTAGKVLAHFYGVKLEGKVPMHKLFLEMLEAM
Test: TR-FRET assay: disruption of co-activator peptide (GST-hSRC2) binding to 6His-tagged ERR1 LBD
Type: biochemical
Conditions: 6 nM ERR1LBD, 6 nM GST-SRC-2 peptide, 25° C., 4-18 hours; average of 3 independent experiments
Method: Time-Resolved Fluorescence Resonance Energy Transfer (TR-FRET) experiments were performed to examine the functional response of ERR1 (also known as ERR-α or ERR-1) ligands. The TR-FRET assay described herein relied on the conformation of ERR1 for binding to a co-activator peptide: when a test compound binds to ERR1 and alters its conformation, it can disrupt the binding of the co-activator peptide. The components of this homogeneous secondary assay included: the ^6His-tagged-ERR1LBD, a GST-labeled-hSRC2 co-activator polypeptide and a fluorescent donor/acceptor pair from CIS bio international htrf/bioassays (Bedford, Mass.) using both an α-GST Europium Cryptate (Eu) label and an α^6His-XL665 (allophycocyanin) fluorophore.
For TR-FRET measurements, the reaction was buffered in 25 mM Tris pH 8, 2.5 mM Hepes, 20 mM KCl, 1 mM DTT, and 0.05 mg/mL BSA (-lipids). The final concentrations of reagents were 6 nM of ERR1LBD, 6 nM GST-SRC-2 peptide, 30 nM Eu cryptate, and 7.5 nM XL665. Reactions were allowed to reach equilibrium at 25° C. for 4-18 hours before collecting data on the Analyst from LJL Biosystems (Molecular Devices Sunnyvale, Calif.). As a time-resolved method, the samples were excited at […] and emission was collected for 1 ms at both 615 and 665 nm with delays of 400 and 75 μs, respectively. Dose response curves were fitted using a hyperbolic equation and the data reported is the average of 3 independent experiments.
Compounds listed in Tables II below were tested in the above assay, and they are all active modulators of ERR1.

SMILES	EC50 [nM]
O=C1N=C(N[C@H]2CN3CCC2CC3)S/C1=C\c1ccc2c(cnn2Cc2ccc(Cl)cc2C(F)(F)F)c1 [Compound 28, 2-(1-Aza-bicyclo[2.2.2]oct-3(R)-ylamino)-5-[1-(4-chloro-2-trifluoromethyl-benzyl)-1H-indazol-5-ylmethylene]-thiazol-4-one]	6
O=C1N=C(N[C@@H]2CN3CCC2CC3)S/C1=C\c1ccc2c(cnn2Cc2ccc(C(F)(F)F)cc2C(F)(F)F)c1 [Compound 29, 2-(1-Aza-bicyclo[2.2.2]oct-3(S)-ylamino)-5-[1-(2,4-bis-trifluoromethyl-benzyl)-1H-indazol-5-ylmethylene]-thiazol-4-one]	39
O=C1N=C(NCc2cncnc2)S/C1=C\c1ccc2c(cnn2Cc2ccc(C(F)(F)F)cc2C(F)(F)F)c1 [Compound 30, 5-[1-(2,4-Bis-trifluoromethyl-benzyl)-1H-indazol-5-ylmethylene]-2-[(pyrimidin-5-ylmethyl)-amino]-thiazol-4-one]	11
NS(=O)(=O)CCNC1=NC(=O)/C(=C/c2ccc3c(cnn3Cc3ccc(C(F)(F)F)cc3C(F)(F)F)c2)S1 [Compound 31, 2-{5-[1-(2,4-Bis-trifluoromethyl-benzyl)-1H-indazol-5-ylmethylene]-4-oxo-4,5-dihydro-thiazol-2-ylamino}-ethanesulfonic acid amide]	37
O=C1N=C(NCc2cncnc2)S/C1=C\c1ccc2c(cnn2Cc2ccc(Cl)cc2C(F)(F)F)c1 [Compound 32, 5-[1-(4-Chloro-2-trifluoromethyl-benzyl)-1H-indazol-5-ylmethylene]-2-[(pyrimidin-5-ylmethyl)-amino]-thiazol-4-one]	8.6
O=C1N=C(NCCC2CCOCC2)S/C1=C\c1ccc2c(cnn2Cc2ccc(C(F)(F)F)cc2C(F)(F)F)c1 [Compound 33, 5-[1-(2,4-Bis-trifluoromethyl-benzyl)-1H-indazol-5-ylmethylene]-2-[2-(tetrahydro-pyran-4-yl)-ethylamino]-thiazol-4-one]	260
O=C1N=C(NCCN2CCCC2=O)S/C1=C\c1ccc2c(cnn2Cc2ccc(C(F)(F)F)cc2C(F)(F)F)c1 [Compound 34, 5-[1-(2,4-Bis-trifluoromethyl-benzyl)-1H-indazol-5-ylmethylene]-2-[2-(2-oxo-pyrrolidin-1-yl)-ethylamino]-thiazol-4-one]	30.8
Cc1nnc(CNC2=NC(=O)/C(=C/c3ccc4c(cnn4Cc4ccc(Cl)cc4C(F)(F)F)c3)S2)[nH]1 [Compound 35, 5-[1-(4-Chloro-2-trifluoromethyl-benzyl)-1H-indazol-5-ylmethylene]-2-[(5-methyl-4H-[1,2,4]triazol-3-ylmethyl)-amino]-thiazol-4-one]	11.2
Cc1nnc(CNC2=NC(=O)/C(=C/c3ccc4c(cnn4Cc4ccc(C(F)(F)F)cc4C(F)(F)F)c3)S2)[nH]1 [Compound 36, 5-[1-(2,4-Bis-trifluoromethyl-benzyl)-1H-indazol-5-ylmethylene]-2-[(5-methyl-4H-[1,2,4]triazol-3-ylmethyl)-amino]-thiazol-4-one]	4.8
O=C(O)CCCNC1=NC(=O)/C(=C/c2ccc3c(cnn3Cc3ccc(Cl)cc3C(F)(F)F)c2)S1 [Compound 37, 4-{5-[1-(4-Chloro-2-trifluoromethyl-benzyl)-1H-indazol-5-ylmethylene]-4-oxo-4,5-dihydro-thiazol-2-ylamino}-butyric acid]	18

Further lines, results first:

EC50 [nM]	SMILES
56.8	O=C1N=C(NC(CO)CO)S/C1=C\c1ccc2c(cnn2Cc2ccc(Cl)cc2C(F)(F)F)c1 [Compound 38, 5-[1-(4-Chloro-2-trifluoromethyl-benzyl)-1H-indazol-5-ylmethylene]-2-(2-hydroxy-1-hydroxymethyl-ethylamino)-thiazol-4-one]
6.6	CN1CCN(CCNC2=NC(=O)/C(=C/c3ccc4c(cnn4Cc4ccc(Cl)cc4C(F)(F)F)c3)S2)CC1 [Compound 39, 5-[1-(4-Chloro-2-trifluoromethyl-benzyl)-1H-indazol-5-ylmethylene]-2-[2-(4-methyl-piperazin-1-yl)-ethylamino]-thiazol-4-one]
7.7	CNC(=O)CNC1=NC(=O)/C(=C/c2ccc3c(cnn3Cc3ccc(Cl)cc3C(F)(F)F)c2)S1 [Compound 41, 2-{5-[1-(4-Chloro-2-trifluoromethyl-benzyl)-1H-indazol-5-ylmethylene]-4-oxo-4,5-dihydro-thiazol-2-ylamino}-N-methyl-acetamide]
10	O=C1N=C(NCc2c[nH]nn2)S/C1=C\c1ccc2c(cnn2Cc2ccc(Cl)cc2C(F)(F)F)c1 [Compound 42, 5-[1-(4-Chloro-2-trifluoromethyl-benzyl)-1H-indazol-5-ylmethylene]-2-[(1H-[1,2,3]triazol-4-ylmethyl)-amino]-thiazol-4-one]
19	O=C1N=C(NCc2c[nH]nn2)S/C1=C\c1ccc2c(cnn2Cc2ccc(C(F)(F)F)cc2C(F)(F)F)c1 [Compound 43, 5-[1-(2,4-Bis-trifluoromethyl-benzyl)-1H-indazol-5-ylmethylene]-2-[(1H-[1,2,3]triazol-4-ylmethyl)-amino]-thiazol-4-one]
15	O=C1N=C(N[C@H]2CC[C@@H](C(=O)O)CC2)S/C1=C\c1ccc2c(cnn2Cc2ccc(Cl)cc2C(F)(F)F)c1 [Compound 44, (S,S)-4-{5-[1-(4-Chloro-2-trifluoromethyl-benzyl)-1H-indazol-5-ylmethylene]-4-oxo-4,5-dihydro-thiazol-2-ylamino}-cyclohexanecarboxylic acid]
9.7	O=C1N=C(NC2(C(=O)O)CC2)S/C1=C\c1ccc2c(cnn2Cc2ccc(Cl)cc2C(F)(F)F)c1 [Compound 45, 1-{5-[1-(4-Chloro-2-trifluoromethyl-benzyl)-1H-indazol-5-ylmethylene]-4-oxo-4,5-dihydro-thiazol-2-ylamino}-cyclopropanecarboxylic acid]
22	O=C(O)CC(O)CNC1=NC(=O)/C(=C/c2ccc3c(cnn3Cc3ccc(Cl)cc3C(F)(F)F)c2)S1 (centres unmarked) [Compound 46, 4-{5-[1-(4-Chloro-2-trifluoromethyl-benzyl)-1H-indazol-5-ylmethylene]-4-oxo-4,5-dihydro-thiazol-2-ylamino}-3-hydroxy-butyric acid]
37	O=C1N=C(N[C@@H]2CNC[C@H]2O)S/C1=C\c1ccc2c(cnn2Cc2ccc(Cl)cc2C(F)(F)F)c1 [Compound 47, (5Z)-5-({1-[4-Chloro-2-(trifluoromethyl)benzyl]-1H-indazol-5-yl}methylidene)-2-{[(3R,4R)-4-hydroxypyrrolidin-3-yl]amino}-1,3-thiazol-4(5H)-one]
5	CN1CCN(CCNC2=NC(=O)/C(=C/c3ccc4c(c3)c(I)nn4Cc3ccc(C(F)(F)F)cc3C(F)(F)F)S2)CC1 [Compound 48, 5-({1-[2,4-Bis(trifluoromethyl)benzyl]-3-iodo-1H-indazol-5-yl}methylidene)-2-{[2-(4-methylpiperazin-1-yl)ethyl]amino}-1,3-thiazol-4(5H)-one]
